According to patent US11833185B2, “Anti-neurodegenerative therapeutic, method of manufacture, and use” (UNIVERSITY OF KENTUCKY RESEARCH FOUNDATION, priority 2017, dated 2023):
Where two headings read alike, the source gives them in different places. Where no end group is shown, it is not given here.

Tests used:
Alzheimer's disease = settings: person
[1] = tested on: striatum levels of DA, DOPAC, HVA, 5-HT, 5-HIAA, and NE; assay: Striatum neurochemistry (RP-HPLC EC) after repeated intranasal administration; type: in vivo, normal Fischer 344 rats; settings: for Turnover ratio 5-HIAA/5-HT / Turnover ratio (HVA + DOPAC)/DA / Turnover ratio DOPAC/DA / Turnover ratio HVA/DA / 5-HT / 5 HIAA / DA / DOPAC / HVA / NE: 5 days a week for 3 weeks, combined left and right striatum, mean; for 5-HT / 5 HIAA / DA / DOPAC / HVA / NE: wet tissue weight
Procedure: (§1) Groups of 12, 3 month old Fischer 344 rats were intranasally dosed 50 microliters (4 single 12.5 microliter administrations, 2 per nare, 5 minutes between each nare administration) of either vehicle, 1.1 mg/mL, or 3.5 mg/mL of AV6403 [Leu-Ala-Pro-Ala-Glu-Asp-NH2] (SEQ ID NO: 1) once a day for 5 days a week, for 3 weeks (5 consecutive days of dosing, 2 off days, repeated total of 3 times). Following day 21, rats were euthanized and brain tissue was recovered and sections removed and weighed for neurochemical analysis by Reverse-Phase High Pressure Liquid Chromatography Electrochemical detection (RP-HPLC EC).
Dopamine [DA], its major metabolites 3,4-Dihydroxy-Phenylacetic Acid (DOPAC) and Homovanillic Acid (HVA), 5-hydroxytryptamine (5-HT, serotonin), its metabolite 5-hydroxyindoleacetic acid (5-HIAA), and norepinephrine (NE) were measured in the striatum and substantia nigra (SN) for each group. In the striatum [TABLE 1], 1.1 mg/mL dosing of AV6403 led to a 20% and 25% reduction of DA and HVA levels [FIG. 1A-FIG. 1C], respectively, resulting in an increase in dopamine turnover (22% [DOPAC/DA] and 16% [[(HVA+DOPAC)/DA]), relative to saline vehicle treated rats [FIG. 2A-FIG. 2B]. […] NE levels were reduced in the striatum with about a 36% reduction for AV6403 1.1 mg/mL dosage versus vehicle [TABLE 1].
as §1, with “1.2” for “1.1”, “3.6” for “3.5”, “AV7624 [Glu-Ala-Pro-Phe-Glu-Asp-NH2]” for “AV6403 [Leu-Ala-Pro-Ala-Glu-Asp-NH2] (SEQ ID NO: 1)”, “RP-HPLC EC.” for “Reverse-Phase High Pressure Liquid Chromatography Electrochemical detection (RP-HPLC EC).”
DA, DOPAC, HVA, 5-HT, 5-HIAA, and NE were measured in the striatum and SN for each group. In the striatum [TABLE 5], 3.6 mg/mL dosing of AV7624 led to an approximate 18%, 39%, and 30% reduction of DA, DOPAC, and HVA levels [FIG. 6A-FIG. 6C], respectively, resulting in an about 18% decrease in dopamine turnover ([DOPAC/DA] and [(HVA+DOPAC)/DA]), relative to saline vehicle treated rats [FIG. 7A-FIG. 7B]. […] NE levels were reduced in the striatum in a dose dependent manner, with about a 32% reduction for the AV7624 3.6 mg/mL dosage versus vehicle [TABLE 5]

[2] = tested on: substantia nigra levels of DA, DOPAC, HVA, 5-HT, 5-HIAA, and NE; assay: Substantia nigra neurochemistry (RP-HPLC EC) after repeated intranasal administration; type: in vivo, normal Fischer 344 rats; settings: for Turnover ratio 5-HIAA/5-HT / Turnover ratio (HVA + DOPAC)/DA / Turnover ratio DOPAC/DA / Turnover ratio HVA/DA / 5-HIAA / 5-HT / DA / DOPAC / HVA / NE: 5 days a week for 3 weeks, combined left and right substantia nigra, mean; for 5-HIAA / 5-HT / DA / DOPAC / HVA / NE: wet tissue weight; for decrease of NE levels: versus vehicle treated rats
Procedure: as §1
In the SN [TABLE 3], treatment of AV6403 led to about a 13% increase in DOPAC and a 11% reduction of HVA, depending on the dosage, [FIG. 4A-FIG. 4C] resulting in an increase in dopamine turnover (20% [DOPAC/DA] for 3.5 mg/mL dosage; 23% [(HVA+DOPAC)/DA] for 1.1 mg/mL) relative to saline vehicle treated rats [FIG. 5A-FIG. 5B]. Treatment with 1.1 mg/mL AV6403 decreased 5-HT by 10% in the SN, resulting in a 16% increase in serotonin turnover [5-HIAA/5-HT] [TABLE 4]. The higher dosage (3.5 mg/mL AV6403) increased NE levels in the SN by about 23% versus vehicle treated rats, respectively [TABLE 3].
as §1, with “1.2” for “1.1”, “3.6” for “3.5”, “AV7624 [Glu-Ala-Pro-Phe-Glu-Asp-NH2]” for “AV6403 [Leu-Ala-Pro-Ala-Glu-Asp-NH2] (SEQ ID NO: 1)”, “RP-HPLC EC.” for “Reverse-Phase High Pressure Liquid Chromatography Electrochemical detection (RP-HPLC EC).”
In the SN [TABLE 7], treatment with 3.6 mg/mL AV7624 led to about a 23%, 22%, and a 6% decrease in DA, DOPAC, and HVA [FIG. 9A-FIG. 9C], relative to saline vehicle treated rats, with minor effects on dopamine turnover [FIG. 10A-FIG. 10B]. Treatment with 3.6 mg/mL AV7624 decreased 5-HT by 20% and 5-HIAA by about 18% in the SN [TABLE 7], resulting in a minor effect on serotonin turnover [TABLE 8]. NE levels in the SN were decreased (17% and 13%) by both dosages (1.2 mg/mL and 3.6 mg/mL) versus vehicle treated rats, respectively [TABLE 7].

Parkinson's disease = settings: person
Procedure: A person presents with current diagnosis of Parkinson's disease with motor complications and responsiveness to levodopa or dopa agonists. They are buccally administered 100 mg at every 12 hours for 180 days. At 1, 90, 180, 270 and 360 days they are tested/retested with a battery of neurological tests including Unified Parkinson's Disease Rating Scale (UPDRS), Time Tests, Hoehn and Yahr (HY) Scale, Clinical Global Impression of Severity (CGIS), Clinical Impression of Severity Index (CISI-PD), Patient Global Impression of Severity (PGIS).
A person presents with diagnosis of Parkinson's disease. They are administered peptide by intranasal spray at a dosage of 25 mg, daily for 60 days. At 1, 90, 180, 270 and 360 days they are tested/retested with a battery of neurological tests including Unified Parkinson's Disease Rating Scale (UPDRS), Time Tests, Hoehn and Yahr (HY) Scale, Clinical Global Impression of Severity (CGIS), Clinical Impression of Severity Index (CISI-PD), Patient Global Impression of Severity (PGIS).

[3] = 3.6 mg/mL intranasal, striatum, relative to saline vehicle treated rats
[4] = 3.6 mg/mL repeated intranasal, striatum
[5] = 3.6 mg/mL intranasal, SN, relative to saline vehicle treated rats

Tryptophan-D-Alanine-Proline-D-Lysine-Asparagine-NH2 [SEQ ID NO: 6]
cognitive loss from day 1 over 360 days (Alzheimer's disease; Alzheimer's disease, intranasal 100 mg once a week for 30 days): minimal to no cognitive loss

Glu-Ala-Pro-Phe-Glu-Asp-NH2 (EAPFED-NH2) [AV7624]
Turnover ratio 5-HIAA/5-HT ([1]; 1.2 mg/mL intranasal): 1.15
Turnover ratio (HVA + DOPAC)/DA ([1]; 1.2 mg/mL intranasal): 0.38
Turnover ratio DOPAC/DA ([1]; 1.2 mg/mL intranasal): 0.28
Turnover ratio HVA/DA ([1]; 1.2 mg/mL intranasal): 0.09
5-HT ([1]; 1.2 mg/mL intranasal): 610 ng/g
5 HIAA ([1]; 1.2 mg/mL intranasal): 674 ng/g
DA ([1]; 1.2 mg/mL intranasal): 13521 ng/g
DOPAC ([1]; 1.2 mg/mL intranasal): 3906 ng/g
HVA ([1]; 1.2 mg/mL intranasal): 1253 ng/g
NE ([1]; 1.2 mg/mL intranasal): 83 ng/g
Turnover ratio 5-HIAA/5-HT ([1]; 3.6 mg/mL intranasal): 1.05
Turnover ratio (HVA + DOPAC)/DA ([1]; 3.6 mg/mL intranasal): 0.33
Turnover ratio DOPAC/DA ([1]; 3.6 mg/mL intranasal): 0.24
Turnover ratio HVA/DA ([1]; 3.6 mg/mL intranasal): 0.09
5-HT ([1]; 3.6 mg/mL intranasal): 487 ng/g
5 HIAA ([1]; 3.6 mg/mL intranasal): 499 ng/g
DA ([1]; 3.6 mg/mL intranasal): 10762 ng/g
DOPAC ([1]; 3.6 mg/mL intranasal): 2478 ng/g
HVA ([1]; 3.6 mg/mL intranasal): 915 ng/g
NE ([1]; 3.6 mg/mL intranasal): 67 ng/g
decrease in dopamine turnover ([DOPAC/DA] and [(HVA+DOPAC)/DA]) [1, 3]: about 18%
reduction of DA levels [1, 3]: about 18%
reduction of DOPAC levels [1, 3]: ~39%
reduction of HVA levels [1, 3]: ~30%
reduction of NE levels ([1]; 3.6 mg/mL intranasal, striatum, versus vehicle): ~32%
effect on turnover [5-HIAA/5-HT] [1, 4]: small effect
reduction of 5-HIAA levels [1, 4]: ~30%
reduction of 5-HT levels [1, 4]: ~28%
effects on DA, 5-HT and their metabolites ([1]; lower dosage (1.2 mg/mL) intranasal, striatum): less robust effects
Turnover ratio 5-HIAA/5-HT ([2]; 1.2 mg/mL intranasal): 0.58
Turnover ratio (HVA + DOPAC)/DA ([2]; 1.2 mg/mL intranasal): 0.34
Turnover ratio DOPAC/DA ([2]; 1.2 mg/mL intranasal): 0.24
Turnover ratio HVA/DA ([2]; 1.2 mg/mL intranasal): 0.10
5-HIAA ([2]; 1.2 mg/mL intranasal): 886 ng/g
5-HT ([2]; 1.2 mg/mL intranasal): 1546 ng/g
DA ([2]; 1.2 mg/mL intranasal): 1918 ng/g
DOPAC ([2]; 1.2 mg/mL intranasal): 472 ng/g
HVA ([2]; 1.2 mg/mL intranasal): 184 ng/g
NE ([2]; 1.2 mg/mL intranasal): 727 ng/g
decrease of NE levels ([2]; 1.2 mg/mL intranasal, SN): 17%
Turnover ratio 5-HIAA/5-HT ([2]; 3.6 mg/mL intranasal): 0.57
Turnover ratio (HVA + DOPAC)/DA ([2]; 3.6 mg/mL intranasal): 0.35
Turnover ratio DOPAC/DA ([2]; 3.6 mg/mL intranasal): 0.22
Turnover ratio HVA/DA ([2]; 3.6 mg/mL intranasal): 0.13
5-HIAA ([2]; 3.6 mg/mL intranasal): 737 ng/g
5-HT ([2]; 3.6 mg/mL intranasal): 1251 ng/g
DA ([2]; 3.6 mg/mL intranasal): 1523 ng/g
DOPAC ([2]; 3.6 mg/mL intranasal): 376 ng/g
HVA ([2]; 3.6 mg/mL intranasal): 177 ng/g
NE ([2]; 3.6 mg/mL intranasal): 767 ng/g
decrease of 5-HIAA ([2]; 3.6 mg/mL intranasal, SN): about 18%
decrease of 5-HT ([2]; 3.6 mg/mL intranasal, SN): 20%
effect on serotonin turnover ([2]; 3.6 mg/mL intranasal, SN): minor effect
effects on dopamine turnover ([2]; 3.6 mg/mL intranasal, SN): minor effects
decrease in DA [2, 5]: ~23%
decrease in DOPAC [2, 5]: ~22%
decrease in HVA [2, 5]: ~6%
decrease of NE levels ([2]; 3.6 mg/mL intranasal, SN): 13%

Glutamate-deuterated Lysine-Proline-D-Phenylalanine-deuterated Leucine-NH2 [SEQ ID NO: 8]
additional UPDRS loss from day 1 over 360 days (Parkinson's disease; intranasal spray 25 mg daily for 60 days): minimal to no additional UPDRS loss

Cyclo (cys-Leucine-Glycine-Proline-Phenylalanine-Serine-Glutamate-cys [SEQ ID NO: 5]
additional test loss from day 1 over 360 days (Parkinson's disease; buccal 100 mg every 12 hours for 180 days): minimal to no additional test loss

D-Glutamate-Alanine-Proline-Phenylalanine-D-Alanine-Glycine-NH2 [SEQ ID NO: 7]
cognitive loss from day 1 over 360 days (Alzheimer's disease; Alzheimer's Disease, buccal 25 mg daily for 60 days): minimal to no cognitive loss

Leucine-Glycine-Proline-Phenylalanine-Serine-Glutamate
cognitive loss from day 1 over 360 days (Alzheimer's disease; mild cognitive impairment Alzheimer's disease, intranasal 5 mg once per day for 360 days): minimal to no cognitive loss
